Results taken from the supplement of paper PMC5844555.

How the values were obtained:
Assay in all cases: 3' UTR reporter interaction score (median-centred robust z-score of log2 firefly/Renilla activity); higher = less repression of the 3' UTR reporter
Conditions in all cases: HEK293T; 48 h
RB1 = system: RB1
Outline: (§1)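 HEK293T cells (10,000/well, 96-well plates) were co-transfected using DharmaFECT Duo with 100 ng firefly luc2P reporter carrying the gene's 3' UTR, 20 ng Renilla pRL-TK control and 2.5 pmol miRNA mimic. Dual-luciferase activities were read 48 h post-transfection. The interaction score is the log-transformed firefly/Renilla ratio as a per-plate robust z-score (median, median absolute deviation), median-centred per miRNA and averaged over at least two independent screens; more negative indicates interaction.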

NOTCH1 = system: NOTCH1
Outline: as §1

MYCN = system: MYCN
Outline: as §1

PHF6 = system: PHF6
Outline: as §1

BRCA2 = system: BRCA2
Outline: as §1

FBXW7 = system: FBXW7
Outline: as §1

MYB = system: MYB
Outline: as §1

MYC = system: MYC
Outline: as §1

EZH2 = system: EZH2
Outline: as §1

PHOX2B = system: PHOX2B
Outline: as §1

ZEB2 = system: ZEB2
Outline: as §1

HRAS = system: HRAS
Outline: as §1

TP53 = system: TP53
Outline: as §1

MYT1L = system: MYT1L
Outline: as §1

Sequence | 3' UTR reporter interaction score (RB1) | 3' UTR reporter interaction score (NOTCH1) | 3' UTR reporter interaction score (MYCN) | 3' UTR reporter interaction score (PHF6) | 3' UTR reporter interaction score (BRCA2) | 3' UTR reporter interaction score (FBXW7) | 3' UTR reporter interaction score (MYB) | 3' UTR reporter interaction score (MYC) | 3' UTR reporter interaction score (EZH2) | 3' UTR reporter interaction score (PHOX2B) | 3' UTR reporter interaction score (ZEB2) | 3' UTR reporter interaction score (HRAS) | 3' UTR reporter interaction score (TP53) | 3' UTR reporter interaction score (MYT1L)
AUGCACCUGGGCAAGGAUUCUG | -0.483 | 0.738 | -0.703 | -1.61 | 1.42 | -4.97 | 0.3 | 1.46 | 2.23 | -3.43 | -2.03 | 0.134 | -0.0328 | 1.1
AUGGAGAUAGAUAUAGAAAU | -0.936 | -0.424 | -0.424 | -0.821 | -0.571 | 0.0761 | -0.0865 | 0.503 | 1.16 | 0.37 | 1.49 | 0.428 | 0.174 | -1.67
AUGUAUGUGUGCAUGUGCAUG | -1.83 | -0.54 | 0.324 | -1.08 | -0.994 | 0.682 | -0.0409 | -1.3 | 1.67 | -0.089 | -0.0851 | 0.472 | 0.0318 | -0.904
AUUACAUGGCCAAUCUC | -1.24 | 0.461 | 0.193 | -0.0228 | -0.25 | 0.611 | 0.0435 | 0.104 | -0.208 | 1.43 | -0.413 | -0.228 | 0.293 | -0.267
AUUCAUUUGGUAUAAACCGCGAU | 0.747 | 0.53 | 0.523 | 0.306 | -0.573 | -1.6 | -0.684 | 0.404 | -0.0582 | -0.197 | 0.368 | 0.347 | -1.06 | -0.154
AUUCCUAGAAAUUGUUCAUA | -0.707 | 0.632 | -0.577 | 0.216 | 0.0394 | 0.157 | 0.61 | -0.586 | 0.167 | -0.529 | -0.418 | -0.0105 | -0.0494 | 1.2
AUUCUAAUUUCUCCACGUCUUUG | -2.85 | -0.432 | 0.587 | -1.02 | -0.103 | -0.826 | 0.162 | 0.0131 | -4.24 | 0.107 | -0.49 | 0.632 | 0.345 | 0.697
AUUCUGCAUUUUUAGCAAGU | 0.0642 | -2.14 | 1.34 | 0.263 | -0.0751 | -2.1 | 1.56 | 1.31 | 0.847 | -0.262 | -0.209 | 0.548 | 0.643 | -2.22
AUUGACACUUCUGUGAGUAG | 0.465 | -0.955 | 0.177 | -0.709 | 0.358 | -1.37 | 0.756 | -0.339 | -0.495 | -1.35 | -1.2 | -0.309 | 0.785 | 0.508
